Measured values taken from patent US8338430B2, “N-substituted piperazines” (Dow AgroSciences, LLC., priority 2005, dated 2012).

Assays:
Assay type in all cases: in vivo
[1] = tested on: Leptosphaeria nodorum=Stagnospora nodorum; test: Fungicidal test for LEPTNO, glume blotch of wheat, one day protectant; conditions: 24 h, wheat plants (variety Yuma), sprayed one day before inoculation
Procedure: (§1) The compounds identified in Table 4 were prepared using the procedures illustrated in the previous examples and these compounds were tested against wheat glume blotch and wheat leaf blotch using the protocols described herein. Fungicidal Test for […] Each pot contained 3-20 seedlings. These plants were sprayed until wet with the formulated test compound at a rate of 25 ppm. On the following day, the leaves were inoculated with an aqueous spore suspension of Leptosphaeria nodorum and the plants were kept in high humidity (one day in a dark dew chamber followed by four to seven days in a lighted dew chamber) to permit spores to germinate and infect the leaf. The plants were then transferred to a greenhouse until disease developed on untreated control plants.

[2] = tested on: Mycosphaerella graminicola=Septoria tritici; test: Fungicidal test for SEPTTR, speckled leaf blotch of wheat, one day protectant; conditions: 24 h, wheat plants (variety Monon), sprayed one day before inoculation
Procedure: as §1, with “Speckled Leaf Blotch of Wheat (Mycosphaerella graminicola=Septoria tritici; Bayer code […]): Wheat plants (variety Monon) were grown from seed in a greenhouse in 50% pasteurized soil/50% soil-less mix until the first true leaf was fully expanded, with 3-8 seedlings per pot.” for “Each pot contained 3-20 seedlings.”, “Septoria tritici” for “Leptosphaeria nodorum”, “leaf” for “leaf.”

[3] = tested on: mosquito (Aedes aegypti) larvae; test: Mosquito larvae mortality (AEDSAE); conditions: 72 h, 20 μg/ml, mortality three days after treatment, read-out: AEDSAE: % mortality against mosquito larvae
Procedure: (§2) The compounds identified in TABLE 2 were prepared using the procedures illustrated in the previous examples and these compounds were tested against beet armyworm, mosquito, fruit fly, and cotton aphid using protocols described after.
(§3) Compounds were evaluated on mosquito (Aedes aegypti) larvae, beet armyworm (Spodoptera exigua) larvae, fruit fly (Drosophila melanogaster) adults and cotton aphid (Aphis gossypi). Newly hatched mosquito larvae (about 50 larvae/well) in 96-well microtiter plates in 230 ul of water containing powdered liver/yeast extract (1 gr/100 ml) were treated with 20 ppm solution of the test compound. Following treatment the plates were covered with a lid and mortality was determined three days after treatment. Beet armyworm eggs (about 5 per well) were placed on artificial diet (in a 96-well microtiter plate) treated with a 4000 ppm solution of a test compound in combination with piperonyl butoxide (in approximate ratio of 1:4). After infestation, the plates were covered with a lid and mortality was determined seven days following treatment. Five-day old fruit fly adults (about 5/well) were placed in deep-well microtiter plates containing 250 ul/well of a 2% agar-10% sucrose mixture that had been treated with a 4000 ppm solution of a test compound. Following infestation, the plates were covered with a lid and mortality was determined three days after treatment. Treatments for the mosquito and armyworm were replicated six times each, that of the fruit fly three times each.

[4] = tested on: fruit fly (Drosophila melanogaster) adults; test: Adult fruit fly mortality on artificial diet (DROSME); conditions: 72 h, 4000 μg/ml, mortality three days after treatment, read-out: DROSME: % mortality against adult fruit fly on artificial diet
Procedure: as §2, §3

[5] = tested on: cotton aphid (Aphis gossypi); test: Cotton aphid foliar spray test on squash (CA 200); conditions: 72 h, squash cotyledons, 3 days, Corrected % Control (Abbott), read-out: CA 200: % control against cotton aphid in foliar spray tests
Procedure: The compounds identified in TABLE 2 were prepared using the procedures illustrated in the previous examples and these compounds were tested against beet armyworm, mosquito, fruit fly, and cotton aphid using protocols described after. […]
Squash with fully expanded cotyledon leaves were trimmed to one cotyledon per plant and infested with cotton aphid (wingless adult and nymph) 1 day prior to chemical application.
Each plant is examined before chemical application to ensure proper infestation (ca. 30-70 aphids per plant). Compounds (3 mg) were dissolved in 3 mL of acetone:methanol (50:50) solvent, forming stock solutions of 1000 ppm. The stock solutions were then diluted with 0.025% Tween 20 (in H2O) to make […]. A hand-held Devilbiss sprayer was used to apply the spray solutions until runoff to both sides of the squash cotyledon leaves. Four plants (4 replications) were used for each concentration of each compound. Reference plants (solvent check) were sprayed with 0.025% Tween 20 only. Treated plants were held in a holding room for 3 days at approximately 23° C. and 40% RH before the number of live aphids on each plant was recorded. Insecticidal activity was measured by Corrected % Control using Abbott's correction formula and presented in TABLE 2: Corrected % Control=100*(X−Y)/X • where X=No. of live aphids on solvent check plants • Y=No. of live aphids on treated plants

[6] = tested on: beet armyworm (Spodoptera exigua) larvae; test: Beet armyworm mortality on artificial diet (LAPHEG); conditions: 168 h, 4000 μg/ml, with piperonyl butoxide (approx. 1:4), mortality seven days after treatment, read-out: LAPHEG: % mortality against beet armyworm on artificial diet
Procedure: as §2, §3

Structure (SMILES) | pest or weed control at 25 ppm [1] [%] | pest or weed control at 25 ppm [2] [%] | mortality at 20 µg/mL [3] [%] | mortality at 4000 µg/mL [4] [%] | pest or weed control at 200 ppm [5] [%] | mortality at 4000 µg/mL [6] [%]
FC(F)(F)c1ccccc1CCN1CCN(Cc2ccc3ccccc3c2)CC1 [Compound 80] | 50 to 100 | 50 to 100 | 1 to 25 | 1 to 25 | 26 to 49 | 26 to 49
FC(F)(F)c1ccccc1CCN1CCN(Cc2ccc(Cl)s2)CC1 [Compound 81] | 50 to 100 | 50 to 100 | 1 to 25 | 1 to 25 | 50 to 100 | 1 to 25
FC(F)(F)c1ccccc1CCN1CCN(Cc2csc3ccc(Cl)cc23)CC1 [Compound 88] | 1 to 25 | 50 to 100 | 1 to 25 | 1 to 25 | 50 to 100 | 1 to 25
c1ccc(OCCN2CCN(Cc3ccccc3-c3ccccc3)CC2)cc1 [Compound 92] | 50 to 100 | 1 to 25 | 1 to 25 | 26 to 49 | 1 to 25 | 1 to 25
c1ccc(CCN2CCN(Cc3ccccc3-c3ccccc3)CC2)cc1 [Compound 93] | 1 to 25 | 50 to 100 | 1 to 25 | 26 to 49 | 1 to 25 | 1 to 25
c1ccc(COc2ccc(CN3CCN(CCOc4ccccc4)CC3)cc2)cc1 [Compound 111] | 50 to 100 | 50 to 100 |  |  |  | 
c1ccc(CCN2CCN(Cc3ccc(OCc4ccccc4)cc3)CC2)cc1 [Compound 112] | 1 to 25 | 50 to 100 |  |  |  | 
O=C(C1CC1)N1CCN(Cc2ccc(OCc3ccccc3)cc2)CC1 [Compound 114] | 1 to 25 | 50 to 100 |  |  |  | 
c1ccc(CCCN2CCN(Cc3ccc4ccccc4c3)CC2)cc1 [Compound 118] | 50 to 100 | 50 to 100 |  |  |  | 
FC(F)(F)c1ccccc1CCN1CCN(Cc2cccc(-n3cccc3)c2)CC1 [Compound 119] | 50 to 100 | 26 to 49 |  |  |  | 
CC(c1ccccc1)N1CCN(Cc2ccc3ccccc3c2)CC1 (stereo not shown) [Compound 187] | 50 to 100 | 50 to 100 |  |  |  | 
CC(c1ccccc1)N1CCN(Cc2cccc(-n3cccc3)c2)CC1 (stereo not shown) [Compound 234] | 50 to 100 | 1 to 25 |  |  |  | 
CC(c1ccccc1)N1CCN(Cc2csc3ccc(Cl)cc23)CC1 (stereo not shown) [Compound 236] | 50 to 100 | 1 to 25 |  |  |  | 
